In patent US20130225508A1, “PEPTIDE CAPABLE OF BINDING TO IMMUNOGLOBULIN” (priority 2010, published 2013):

Tested on: Arthus reaction
Assay: Type III allergic (Arthus) reaction-induced rat model, dye leakage
Format: in vivo, Slc:Wistar rats
Conditions: 50 mg/kg intraperitoneal; mean±SD
Method: Using forty-two 7-week-old male Slc:Wistar rats, examinations were made on test substance VII-2, with each of intraperitoneal administration and intravenous administration into tail vain. Acclimation was carried out by giving normal solid chow CRF-1 for a period of 6 days or longer. On the day prior to administration, the back of each animal was shaved. On the day of administration, a mixed solution of egg-white Ovalbumin (MP Biomedicals) (hereinafter referred to as “OVA”) and Evans blue dye was administered into the tail vein. […] The amount of dye leakage was quantified by measuring absorbance for the Evans blue dye with a spectrophotometer and using a calibration curve. […]
Several cuttings were made in the skin strips that had been punched out with a punch. […] The amount of dye leakage was calculated from a calibration curve of known amounts of the dye.
The mean value (mean)±standard deviation (SD) for each of the groups was calculated with respect to body-weight measurements and amounts of dye leakage. For amounts of dye leakage, the value for each of the animals was determined by subtracting the mean of the values obtained for the two sites of PBS administration from the mean of the values obtained for the two sites of administration of the anti-OVA solution. […]

For `C[C@]12CCC(=O)C=C1CC[C@@H]1[C@@H]2[C@@H](O)C[C@@]2(C)[C@H]1CC[C@]2(O)C(=O)CO` [Hydrocortisone], the “amount of dye leakage (Evans blue)” value was 5.665±0.674 μg/animal.
